Measurements reported in US6207686A, “Endothelin antagonists” (Fujisawa Pharmaceutical Co., Ltd., priority 1994, dated 2001).

How the values were obtained:
[1] = biological target: T1, ETA (Sus scrofa, UniProt Q29010); experiment: ETA Antagonistic Activity: radioligand binding assay, effect on specific binding of ^125 I-endothelin-1 in porcine aorta membrane; settings: ^125 I-Endothelin-1 1.67×10^-11 M, room temperature, 60 minutes
T1 construct: The aorta membrane fractions were stored at -80° C. until use; tissue Pel-Freez Biologicals (U.S.A.); host or cells: porcine aorta, crude membrane fraction
T1 sequence (Q29010 21-427): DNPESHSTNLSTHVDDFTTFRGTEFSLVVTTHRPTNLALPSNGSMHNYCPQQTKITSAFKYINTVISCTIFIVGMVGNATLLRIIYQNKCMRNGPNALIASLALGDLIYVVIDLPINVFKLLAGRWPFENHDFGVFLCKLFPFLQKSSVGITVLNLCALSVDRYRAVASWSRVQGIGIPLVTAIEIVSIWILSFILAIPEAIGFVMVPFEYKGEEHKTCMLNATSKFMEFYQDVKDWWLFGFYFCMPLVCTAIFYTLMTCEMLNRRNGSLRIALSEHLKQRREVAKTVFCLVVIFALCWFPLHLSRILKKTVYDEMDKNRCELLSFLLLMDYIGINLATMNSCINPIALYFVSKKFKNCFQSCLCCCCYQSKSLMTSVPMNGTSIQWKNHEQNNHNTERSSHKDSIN
Procedure: (ETA Antagonistic Activity)
(§1) Radioligand binding assay:
(§2) (a) Crude receptor membrane preparation:
Porcine aorta was purchased from Pel-Freez Biologicals (U.S.A.) and stored at -80° C. until use.
Porcine aorta (50 g) was thawed and dissected free from fatty tissue, minced with scissors and then homogenized with a polytron (Brinkmann PT-20, maximal speed for 3×10 sec) in 100 ml buffer (0.25M sucrose, 10 mM Tris-HCl, 0.1 mM EDTA).
The homogenate was centrifuged at 10,000 g for 20 minutes at 4° C.
The supernatant, containing the plasma membrane fraction, was centrifuged at 100,000 g for 60 minutes at 4° C., and then resultant pellets were referred to as crude membrane fractions.
The pellets were resuspended in 25 ml of binding assay buffer (50 mM Tris-HCl, 100 mM NaCl, 5 mM MgCl2, 1.5 μg/ml phenylmethylsulfonyl fluoride (PMSF), 120 μg/ml bacitracin, 12 μg/ml leupepcin, 6 μg/ml chymostain, 0.1% bovine serum albumin (BSA), pH 7.5).
The aorta membrane fractions were stored at -80° C. until use.
(b) ^125 I-endothelin-1 binding assay: […]
After incubation, the incubation mixture were filtered through Glass-fiber GF/C filter (pretreated with 0.1% polyethylene imine for 3 hours prior to use) using cell harvester (Brandel M-24S). […] The filters were counted in a gamma counter (Packard Auto Gamma Model 5650).

[2] = biological target: T2, ETB (Sus scrofa, UniProt P35463); experiment: ETB Antagonistic Activity: radioligand binding assay, effect on specific binding of [^125 I]ET-1 in porcine kidney membrane; settings: inner medulla of porcine kidney membrane; [^125 I]ET-1 16 pM
T2 construct: Membranes as endothelin receptors were isolated from inner medulla of porcine kidney; from tissue; host or cells: inner medulla of porcine kidney, crude membranes
T2 sequence (P35463 27-443): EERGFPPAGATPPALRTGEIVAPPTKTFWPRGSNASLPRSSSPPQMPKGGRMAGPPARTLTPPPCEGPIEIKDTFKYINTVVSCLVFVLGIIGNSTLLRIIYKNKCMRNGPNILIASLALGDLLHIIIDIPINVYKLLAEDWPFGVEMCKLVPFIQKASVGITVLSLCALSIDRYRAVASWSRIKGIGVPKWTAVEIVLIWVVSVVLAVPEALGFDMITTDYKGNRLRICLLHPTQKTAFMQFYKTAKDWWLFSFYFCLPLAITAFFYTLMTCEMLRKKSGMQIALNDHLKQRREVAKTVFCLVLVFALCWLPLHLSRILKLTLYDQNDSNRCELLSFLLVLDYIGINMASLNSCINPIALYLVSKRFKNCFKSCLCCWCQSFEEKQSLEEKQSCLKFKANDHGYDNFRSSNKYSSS
Procedure: (ETB Antagonistic Activity)
as §1, §2
Membranes as endothelin receptors were isolated from inner medulla of porcine kidney. The inner medulla of porcine kidney was placed in ice-cold buffer (0.25M sucrose, 5 mM Tris-HCl, 0.1 mM EDTA, pH 7.5). The inner medulla was homogenized in five volumes (w/v) of ice-cold buffer using a Brinkman Polytron PT-10 at a setting of 16,000 rpm for three 10-sec periods. The homogenate was centrifuged at 10,000× g for 20 minutes at 4° C. The pellet was discarded and the supernatant was centrifuged at 100,000× g for 60 minutes at 4° C. […]
To determine [^125 I]ET-1 binding to kidney, membrane suspensions prepared from kidney (10 μg of protein) were incubated by constant shaking for 60 minutes at 23° C. with [^125 I]ET-1 (range, 4-900 pM) in a total volume of 250 μl of buffer 1 that contained 0.1 mg/ml of bovine serum albumin. […] The filter disks were washed three times with 0.1 ml of ice-cold 50 mM Tris-HCl buffer (pH 7.5), and the radioactivity was counted in a gamma counter (Hewlett-Packard) with an efficiency of 71%. […] The Kd was determined by Scatchard analysis. […]

| IC50 [1] | IC50 [2] | Structure (SMILES) |
| --- | --- | --- |
| 530 nM | – | CCC[C@@H](O)[C@H](C(=O)O)c1ccc2c(c1)OCO2 (racemic) [Compound C, (2RS,3RS)-2-(3,4-Methylenedioxyphenyl)-3-hydroxyhexanoic acid] |
| 40 nM | < 10 nM | CCC[C@@H](O)[C@H](C(=O)N[C@@H](Cc1c[nH]c2ccccc12)C(=O)O)c1ccc2c(c1)OCO2 (mixture of isomers) [Compound B, N-[(2RS,3RS)-2-(3,4-Methylenedioxyphenyl)-3-hydroxyhexanoyl]-L-tryptophan] |
| – | 75 nM | O=C(O)[C@H](Cc1c[nH]c2ccccc12)NC(=O)[C@H](c1ccccc1O)[C@H](O)C1CCCCC1 [Compound A, N-[(2R,3R)-3-Cyclohexyl-2-(2-hydroxyphenyl)-3-hydroxypropionyl]-L-tryptophan] |
